pIC50: −log10 of the molar value. Structures can show the parent of a compound that is named as a salt.
These compounds were tested against human recombinant TPK1 (Homo sapiens, UniProt P49841) (assay: Inhibitory activity against P-GS1 phosphorylation by TPK1 (Kinase Glo luminescence)). Conditions: 7.5 μM P-GS1, 10 μM ATP, 25° C. for 16 hours, Kinase Glo Reagent luminescent signal.
Assay type: biochemical
How it was run: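 Human recombinant TPK1 phosphorylated 7.5 μM P-GS1 with 10 μM ATP in 100 mM HEPES-NaOH pH 7.2 with Mg, EGTA, DTT, Tween 20 and 1% DMSO final, for 16 h at 25° C. Remaining ATP was read by Kinase Glo luminescence. IC50 was normalised to no-enzyme (0%) and no-compound (100%) controls.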

human recombinant TPK1, sequence (P49841 whole entry): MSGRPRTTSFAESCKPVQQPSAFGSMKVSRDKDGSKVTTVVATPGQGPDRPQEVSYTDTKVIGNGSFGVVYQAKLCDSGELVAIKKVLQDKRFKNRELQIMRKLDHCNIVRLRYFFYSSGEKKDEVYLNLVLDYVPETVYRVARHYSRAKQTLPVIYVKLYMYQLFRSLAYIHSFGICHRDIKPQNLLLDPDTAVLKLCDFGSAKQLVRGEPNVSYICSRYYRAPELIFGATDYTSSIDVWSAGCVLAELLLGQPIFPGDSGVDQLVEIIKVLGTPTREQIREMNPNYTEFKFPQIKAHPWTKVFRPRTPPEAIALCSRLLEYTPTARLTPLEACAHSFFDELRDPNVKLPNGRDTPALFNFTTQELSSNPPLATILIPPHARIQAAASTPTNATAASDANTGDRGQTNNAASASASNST

Row | Structure (SMILES) | pIC50
1 | Cn1c(N2CCCOCC2)nc(-c2ccncn2)cc1=O [Compound A002, 2-(1,4-oxazepan-4-yl)-3-methyl-6-(pyrimidin-4-yl)pyrimidin-4(3H)-one] | 6.63
2 | Cn1c(N2CCCO[C@@H](c3cccc(C#N)c3)C2)nc(-c2ccncc2)cc1=O [Compound A046, (S)-2-[2-(3-cyanophenyl)-1,4-oxazepan-4-yl]-3-methyl-6-(pyridin-4-yl)pyrimidin-4(3H)-one] | 7.21
3 | Cn1c(N2CCOCC(c3ccc(-c4ncon4)cc3)C2)nc(-c2ccncc2F)cc1=O (centres unmarked) [Compound A078, 2-[6-[4-(1,2,4-oxadiazol-3-yl)-phenyl]-1,4-oxazepan-4-yl]-6-(3-fluoropyridin-4-yl)-3-methylpyrimidin-4(3H)-one] | 8.15
4 | Cn1c(N2CCCO[C@@H](c3ccc(F)cc3)C2)nc(-c2ccncn2)cc1=O [Compound A092, (S)-2-[2-(4-fluorophenyl)-1,4-oxazepan-4-yl]-3-methyl-6-(pyrimidin-4-yl)pyrimidin-4(3H)-one] | 8.08
5 | Cc1nc(-c2ccc(C3CCN(c4nc(-c5ccncn5)cc(=O)n4C)CCO3)cc2)no1 (single isomer, unassigned; (-)) [Compound A112, (−)-2-[7-[4-(5-methyl-1,2,4-oxadiazol-3-yl)-phenyl]-1,4-oxazepan-4-yl]-3-methyl-6-(pyrimidin-4-yl)pyrimidin-4(3H)-one] | 7.52
6 | Cn1c(N2CCOC(c3ccccc3F)CC2)nc(-c2ccncc2F)cc1=O (centres unmarked) [Compound A014, 2-[7-(2-fluorophenyl)-1,4-oxazepan-4-yl]-6-(3-fluoropyridin-4-yl)-3-methylpyrimidin-4(3H)-one] | 8.09
7 | Cn1c(N2CCCO[C@H](c3cccc(C(N)=O)c3)C2)nc(-c2ccncc2F)cc1=O [Compound A029] | 7.73
8 | Cn1c(N2CCOC(c3ccc(F)cc3)CC2)nc(-c2ccncc2F)cc1=O (centres unmarked) [Compound A108, 2-[7-(4-fluorophenyl)-1,4-oxazepan-4-yl]-6-(3-fluoropyridin-4-yl)-3-methylpyrimidin-4(3H)-one] | 7.61
9 | Cn1c(N2CCOC(c3ccc(-c4ncon4)cc3)CC2)nc(-c2ccncc2F)cc1=O (single isomer, unassigned; (-)) [Compound A104, (−)-2-[7-[4-(1,2,4-oxadiazol-3-yl)-phenyl]-1,4-oxazepan-4-yl]-6-(3-fluoropyridin-4-yl)-3-methylpyrimidin-4(3H)-one] | 7.76

Next, values leading:

Row | pIC50 | Structure (SMILES)
10 | 8.23 | Cc1noc(-c2ccc(C3COCCN(c4nc(-c5ccncc5F)cc(=O)n4C)C3)cc2)n1 (centres unmarked) [Compound A077, 2-[6-[4-(3-methyl-1,2,4-oxadiazol-5-yl)-phenyl]-1,4-oxazepan-4-yl]-6-(3-fluoropyridin-4-yl)-3-methylpyrimidin-4(3H)-one]
11 | 6.77 | Cc1noc(-c2cccc([C@H]3CN(c4nc(-c5ccncc5)cc(=O)n4C)CCCO3)c2)n1 [Compound A056, (S)-2-[2-[3-(3-methyl-1,2,4-oxadiazol-5-yl)-phenyl]-1,4-oxazepan-4-yl]-3-methyl-6-(pyridin-4-yl)pyrimidin-4(3H)-one]
12 | 8.02 | COc1cccc(C2CCN(c3nc(-c4ccncc4F)cc(=O)n3C)CCO2)c1 (centres unmarked) [Compound A093, 2-[7-(3-methoxyphenyl)-1,4-oxazepan-4-yl]-6-(3-fluoropyridin-4-yl)-3-methylpyrimidin-4(3H)-one]
13 | 6.78 | Cc1nc(-c2cccc([C@@H]3CN(c4nc(-c5ccncc5F)cc(=O)n4C)CCCO3)c2)no1 [Compound A055]
14 | 7.35 | Cc1nc(-c2cccc([C@H]3CN(c4nc(-c5ccncc5)cc(=O)n4C)CCCO3)c2)no1 [Compound A042, (S)-2-[2-[3-(5-methyl-1,2,4-oxadiazol-3-yl)-phenyl]-1,4-oxazepan-4-yl]-3-methyl-6-(pyridin-4-yl)pyrimidin-4(3H)-one]
15 | 7.15 | Cn1c(N2CCCO[C@H](c3cccc(C(N)=O)c3)C2)nc(-c2ccncn2)cc1=O [Compound A049, (R)-2-[2-(3-aminocarbonylphenyl)-1,4-oxazepan-4-yl]-3-methyl-6-(pyrimidin-4-yl)pyrimidin-4(3H)-one]
16 | 6.66 | Cn1c(N2CCCO[C@H](c3ccc(Br)cc3)C2)nc(-c2ccncn2)cc1=O [Compound A058, (R)-2-(2-(4-bromophenyl)-1,4-oxazepan-4-yl)-3-methyl-6-(pyrimidin-4-yl)pyrimidin-4(3H)-one]
17 | 7.57 | Cn1c(N2CCCOC(c3ccc(F)cc3)C2)nc(-c2ccncc2)cc1=O (centres unmarked) [Compound A035, 2-[2-(4-fluorophenyl)-1,4-oxazepan-4-yl]-3-methyl-6-(pyridin-4-yl)pyrimidin-4(3H)-one hydrochloride]
